In PubChem BioAssay (NCI):
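Cultured in 96-well plates, cells were exposed to test compound for 48 hours across five concentrations. TGI is the concentration that stops growth completely.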

Assays:
Assay in all cases: DTP human tumour cell line panel, 48 h
OVCAR-3 ovarian = system: OVCAR-3 ovarian
MDA-N = system: MDA-N
NCI-H226 lung = system: NCI-H226 lung
MDA-MB-435 = system: MDA-MB-435
RXF 393 renal = system: RXF 393 renal
UACC-62 melanoma = system: UACC-62 melanoma
SF-268 CNS = system: SF-268 CNS
CAKI-1 renal = system: CAKI-1 renal
UACC-257 melanoma = system: UACC-257 melanoma
NCI/ADR-RES ovarian = system: NCI/ADR-RES ovarian
U251 CNS = system: U251 CNS
OVCAR-4 ovarian = system: OVCAR-4 ovarian
HT29 colon = system: HT29 colon
COLO 205 colon = system: COLO 205 colon
HCC-2998 colon = system: HCC-2998 colon
IGROV1 ovarian = system: IGROV1 ovarian
NCI-H460 lung = system: NCI-H460 lung
A549 NSCLC = system: A549 NSCLC
SF-295 CNS = system: SF-295 CNS
LOX IMVI melanoma = system: LOX IMVI melanoma
SK-MEL-5 melanoma = system: SK-MEL-5 melanoma
SK-OV-3 ovarian = system: SK-OV-3 ovarian
EKVX NSCLC = system: EKVX NSCLC
NCI-H23 lung = system: NCI-H23 lung
PC-3 prostate = system: PC-3 prostate
SNB-19 CNS = system: SNB-19 CNS
SR leukemia = system: SR leukemia
KM12 colon = system: KM12 colon
SF-539 CNS = system: SF-539 CNS
MCF7 breast = system: MCF7 breast
HOP-62 NSCLC = system: HOP-62 NSCLC
786-0 renal = system: 786-0 renal
SK-MEL-2 melanoma = system: SK-MEL-2 melanoma
SK-MEL-28 melanoma = system: SK-MEL-28 melanoma
DU-145 prostate = system: DU-145 prostate
RPMI-8226 leukemia = system: RPMI-8226 leukemia
OVCAR-8 ovarian = system: OVCAR-8 ovarian
CCRF-CEM leukemia = system: CCRF-CEM leukemia
BT-549 breast = system: BT-549 breast
MDA-MB-231 breast = system: MDA-MB-231 breast
HL-60(TB) leukemia = system: HL-60(TB) leukemia
UO-31 renal = system: UO-31 renal
T-47D breast = system: T-47D breast
SW-620 colon = system: SW-620 colon
HCT-15 colon = system: HCT-15 colon
SNB-75 CNS = system: SNB-75 CNS
MALME-3M melanoma = system: MALME-3M melanoma
NCI-H522 lung = system: NCI-H522 lung
A498 renal = system: A498 renal
ACHN renal = system: ACHN renal
HS 578T breast = system: HS 578T breast
MOLT-4 leukemia = system: MOLT-4 leukemia
TK-10 renal = system: TK-10 renal
OVCAR-5 ovarian = system: OVCAR-5 ovarian
HCT-116 colon = system: HCT-116 colon
HOP-92 NSCLC = system: HOP-92 NSCLC
M14 melanoma = system: M14 melanoma
SN12C renal = system: SN12C renal
K-562 leukemia = system: K-562 leukemia

C=C(CC[C@@H](C)[C@H]1CC[C@H]2[C@@H]3C[C@@H](O)[C@H]4C[C@@H](O)CC[C@]4(CO)[C@H]3CC[C@]12C)C(C)C
TGI (OVCAR-3 ovarian): 8.77 µM | TGI (MDA-N): 15.6 µM | TGI (NCI-H226 lung): 18.4 µM | TGI (MDA-MB-435): 14.2 µM | TGI (RXF 393 renal): 8.42 µM | TGI (UACC-62 melanoma): 15 µM | TGI (SF-268 CNS): 12.6 µM | TGI (CAKI-1 renal): 11.8 µM | TGI (UACC-257 melanoma): 14.8 µM | TGI (NCI/ADR-RES ovarian): 12.2 µM | TGI (U251 CNS): 13 µM | TGI (OVCAR-4 ovarian): 13.4 µM | TGI (HT29 colon): 7.91 µM | TGI (COLO 205 colon): 15.8 µM | TGI (HCC-2998 colon): 6.33 µM | TGI (IGROV1 ovarian): 12.6 µM | TGI (NCI-H460 lung): 7.14 µM | TGI (A549 NSCLC): 11.1 µM | TGI (SF-295 CNS): 17.1 µM | TGI (LOX IMVI melanoma): 9 µM | TGI (SK-MEL-5 melanoma): 15.9 µM | TGI (SK-OV-3 ovarian): 16.3 µM | TGI (EKVX NSCLC): 4.34 µM | TGI (NCI-H23 lung): 12 µM | TGI (PC-3 prostate): 10.8 µM | TGI (SNB-19 CNS): 15.3 µM | TGI (SR leukemia): 9.77 µM | TGI (KM12 colon): 8.01 µM | TGI (SF-539 CNS): 20.6 µM | TGI (MCF7 breast): 9.53 µM | TGI (HOP-62 NSCLC): 14.8 µM | TGI (786-0 renal): 11.1 µM | TGI (SK-MEL-2 melanoma): 13.9 µM | TGI (SK-MEL-28 melanoma): 10.3 µM | TGI (DU-145 prostate): 10 µM | TGI (RPMI-8226 leukemia): 11.6 µM | TGI (OVCAR-8 ovarian): 12.5 µM | TGI (CCRF-CEM leukemia): 10.5 µM | TGI (BT-549 breast): 15 µM | TGI (MDA-MB-231 breast): 10.4 µM | TGI (HL-60(TB) leukemia): 14.9 µM | TGI (UO-31 renal): 11.1 µM | TGI (T-47D breast): 8.47 µM | TGI (SW-620 colon): 16.5 µM | TGI (HCT-15 colon): 8.27 µM | TGI (SNB-75 CNS): 15.1 µM | TGI (MALME-3M melanoma): 12.8 µM | TGI (NCI-H522 lung): 11.1 µM | TGI (A498 renal): 13.3 µM | TGI (ACHN renal): 12 µM | TGI (HS 578T breast): 12.4 µM | TGI (MOLT-4 leukemia): 10.8 µM | TGI (TK-10 renal): 5.47 µM | TGI (OVCAR-5 ovarian): 13.3 µM | TGI (HCT-116 colon): 8.91 µM | TGI (HOP-92 NSCLC): 15.5 µM | TGI (M14 melanoma): 14.7 µM | TGI (SN12C renal): 12.6 µM | TGI (K-562 leukemia): 6.92 µM
